According to PubChem BioAssay (NCI):
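Values below derive from 48-hour exposures of cells grown in 96-well plates, with endpoints linearly interpolated between the two concentrations bracketing the appropriate inhibition level. GI50 is the concentration that inhibits growth by half. The concentration for full growth arrest is given as TGI.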

Legend:
Experiment in all cases: inhibition of tumour cell growth, NCI panel, 48 h
[1] = system: A549 NSCLC
[2] = system: HT29 colon
[3] = system: K-562 leukemia
[4] = system: KM12 colon
[5] = system: NCI-H226 lung
[6] = system: OVCAR-3 ovarian
[7] = system: SF-268 CNS
[8] = system: SK-MEL-5 melanoma
[9] = system: U251 CNS
[10] = system: UACC-62 melanoma

| SMILES | GI50 [1] | TGI [1] | GI50 [2] | TGI [2] | GI50 [3] | TGI [3] | GI50 [4] | TGI [4] | GI50 [5] | TGI [5] | GI50 [6] | TGI [6] | GI50 [7] | TGI [7] | GI50 [8] | TGI [8] | GI50 [9] | TGI [9] | GI50 [10] | TGI [10] |
| --- | --- | --- | --- | --- | --- | --- | --- | --- | --- | --- | --- | --- | --- | --- | --- | --- | --- | --- | --- | --- |
| O=C(Cc1ccc(Nc2ccnc(C(F)(F)F)c2)cc1)N/N=C/c1ccccc1O | 4.49 µM | > 100 µM | 6.53 µM | 56 µM | 2.74 µM | 20.1 µM | 2.09 µM | 15.5 µM | 3.85 µM | > 55.6 µM | 0.793 µM | 25.8 µM | 2.17 µM | > 73.8 µM | 2.58 µM | 11.1 µM | 1.87 µM | > 54.8 µM | 2.17 µM | 21.5 µM |
| Cc1cc2c(cc1C)[n+](=O)c(C(=O)CC(=O)C(=O)Nc1ccccc1C(C)C)c(C)n2[O-] |  | > 100 µM |  | > 100 µM |  | > 100 µM |  | > 100 µM |  | > 100 µM |  | > 100 µM |  | > 100 µM |  | > 100 µM |  | > 100 µM |  | > 100 µM |
| O=C(O)CCC1CCc2cccc(OCC(=O)O)c2C1=O (stereo not drawn) |  | > 100 µM |  | > 100 µM |  | > 100 µM |  |  |  |  |  | > 100 µM |  |  |  | > 100 µM |  | > 100 µM |  | > 100 µM |
| O=C1C(=C([O-])c2ccccc2)C(=O)c2ccccc21.O=C1C(=C([O-])c2ccccc2)C(=O)c2ccccc21.[Co+2] | > 100 µM | > 100 µM | > 100 µM | > 100 µM | > 100 µM | > 100 µM | > 100 µM | > 100 µM | > 100 µM | > 100 µM | 75.1 µM | > 100 µM | > 100 µM | > 100 µM | > 100 µM | > 100 µM | > 100 µM | > 100 µM | 57.1 µM | > 100 µM |
| NC(=N\N=C/c1ccc(Cl)cc1Cl)/C(N)=N\N=C/c1ccc(Cl)cc1Cl | 5.99 µM | > 100 µM | > 100 µM | > 100 µM | 63.1 µM | > 100 µM | > 100 µM | > 100 µM | 9.92 µM | 98 µM | 12.3 µM | > 73.8 µM | 50.4 µM | > 100 µM | > 100 µM | > 100 µM | 1.02 µM | 19 µM | > 69.2 µM | > 100 µM |
| O=C(O)c1cn(C2CC2)c2cc(N3CCN(C(=O)Nc4nc(-c5ccc(Br)cc5)cs4)CC3)c(F)cc2c1=O | 3.68 µM | > 100 µM | 2.6 µM | > 100 µM | 1.51 µM | > 100 µM | 1.93 µM | > 100 µM |  |  | 1.42 µM | > 100 µM | 1.23 µM | > 100 µM |  |  | 1.96 µM | > 100 µM |  |  |
| CN(CSc1ccc(Cl)cc1)c1ccc(CSc2ccc(Cl)cc2)cc1 | 5.22 µM | 34.4 µM | 12.2 µM | 34.2 µM | 6.64 µM | > 100 µM | 3.24 µM | 15.1 µM | 2.16 µM | 6.67 µM | 1.97 µM | 5.17 µM | 1.46 µM | 10.4 µM | 6.85 µM | 19.8 µM | 6.87 µM | 23.5 µM | 3.82 µM | 15.8 µM |
| O=C(Cc1ccccc1)NN1C(=O)C(Cl)C1c1cccc([N+](=O)[O-])c1 (stereo not drawn) |  | > 100 µM |  | > 20 µM |  | 54 µM |  | > 100 µM |  | > 90.1 µM |  | > 86.8 µM |  | > 100 µM |  | > 100 µM |  | > 100 µM |  | > 100 µM |
| O=C1c2cccnc2C(=O)c2c1c(C(=O)OCCc1ccccn1)c1ccccn21 | 0.248 µM | 1.56 µM | 1.54 µM | 3.35 µM | 0.0612 µM | > 100 µM | 0.0946 µM | > 22.4 µM | 0.0277 µM | 0.472 µM | 0.0305 µM | 1.45 µM | 0.0188 µM | 5.31 µM | 0.0332 µM | 0.299 µM | 0.0216 µM | 0.261 µM | 0.0202 µM | 0.219 µM |
| CCC1c2cc3n(c(=O)c2COC1O)Cc1c-3nc2ccccc2c1Cl (stereo not drawn) |  | > 100 µM |  | > 100 µM |  | > 100 µM |  | > 100 µM |  | > 100 µM |  | > 100 µM |  | > 100 µM |  | > 100 µM |  | > 100 µM |  | > 100 µM |
| NC(=S)N/N=C(\CCC(=O)Nc1ccccc1[N+](=O)[O-])CC(=O)c1ccco1 |  | > 100 µM |  | > 100 µM |  | > 100 µM |  | > 100 µM |  | > 100 µM |  | > 100 µM |  | > 100 µM |  | > 100 µM |  | > 100 µM |  | > 100 µM |
| CCN1C(=O)N(CC)C2C1NC(=S)N2/N=C/C=C/c1ccccc1OC (stereo not drawn) | 0.0403 µM | > 100 µM | 0.0361 µM | > 100 µM | 0.0276 µM | > 100 µM | 0.0406 µM | > 100 µM | 0.0458 µM | > 100 µM | 0.0351 µM | 1.16 µM | 0.0535 µM | > 100 µM | 0.0305 µM | 0.158 µM | 0.0427 µM | > 100 µM | 0.0458 µM | > 100 µM |
| N#Cc1c2ccccc2c2nnc3ccccc3n12 | 13.5 µM | 36.7 µM | 42.6 µM | > 100 µM | 81.9 µM | > 100 µM | 48.7 µM | > 100 µM |  |  | 59.7 µM | > 100 µM | 50 µM | > 100 µM |  |  | 17.7 µM | 70 µM |  |  |
| NC(=O)CCc1ccccc1Oc1nccc(-c2c(-c3ccc(F)cc3)ncn2C2CCNCC2)n1 | > 25 µM | > 25 µM | > 25 µM | > 25 µM | > 25 µM | > 25 µM | > 25 µM | > 25 µM |  |  | > 25 µM | > 25 µM | > 25 µM | > 25 µM | > 25 µM | > 25 µM | > 25 µM | > 25 µM | > 25 µM | > 25 µM |
